{"source": "patent US20250230193A1", "about": "“CYCLIC COMPOUND HAVING SELECTIVE KRAS INHIBITORY EFFECT ON HRAS AND NRAS” (CHUGAI SEIYAKU KABUSHIKI KAISHA, priority 2022, published 2025)", "key": {"[1]": {"biological_target": "GDP-bound HRAS wild-type protein (Homo sapiens, UniProt P01112)", "sequence (P01112 whole entry)": "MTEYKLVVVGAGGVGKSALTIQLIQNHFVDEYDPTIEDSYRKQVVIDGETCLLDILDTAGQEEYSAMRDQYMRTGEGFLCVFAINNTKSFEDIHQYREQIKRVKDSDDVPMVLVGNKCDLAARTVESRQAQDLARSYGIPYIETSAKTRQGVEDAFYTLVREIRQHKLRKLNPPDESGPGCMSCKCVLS", "experiment": "Binding to HRAS by surface plasmon resonance (SPR), Single Cycle Kinetics", "details": "for HRAS/KRAS (ratio of KD value with respect to HRAS to KD value with respect to KRAS): GDP-bound HRAS wild-type vs GDP-bound KRAS wild-type"}, "[2]": {"biological_target": "GDP-bound NRAS wild-type protein (Homo sapiens, UniProt P01111)", "sequence (P01111 whole entry)": "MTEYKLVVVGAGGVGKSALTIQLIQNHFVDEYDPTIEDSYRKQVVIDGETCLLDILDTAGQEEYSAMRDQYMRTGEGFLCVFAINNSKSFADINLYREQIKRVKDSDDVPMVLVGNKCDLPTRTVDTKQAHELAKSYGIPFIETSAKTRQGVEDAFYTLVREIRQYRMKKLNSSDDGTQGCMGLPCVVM", "experiment": "Binding to NRAS by surface plasmon resonance (SPR), Single Cycle Kinetics", "details": "for NRAS/KRAS (ratio of KD value with respect to NRAS to KD value with respect to KRAS): GDP-bound NRAS wild-type vs GDP-bound KRAS wild-type"}}, "note": "Where a SMILES comes first, the peptide text is derived from it. Bridges are numbered along the chain shown (N, C = ends). [ ]: non-standard residue; d: D form. The star is where a group is joined. hPhe(3,5-F2-4-CF3) = N[C@@H](CCc1cc(F)c(C(F)(F)F)c(F)c1)C(=O)O; NPrPhe(4-CF3) = CCCN[C@@H](Cc1ccc(C(F)(F)F)cc1)C(=O)O; NMeGly(cPent) = CN[C@H](C(=O)O)C1CCCC1; αMeF = C[C@](N)(Cc1ccccc1)C(=O)O; NMeD = CN[C@@H](CC(=O)O)C(=O)O; NMeL = CN[C@@H](CC(C)C)C(=O)O; Morpholide = C1CN(*)CCO1; Aze = O=C(O)[C@@H]1CCN1; Sar = CNCC(=O)O", "data": [{"smiles": "CC(C)C[C@H]1C(=O)N[C@@H](C2CCC2)C(=O)N(C)CC(=O)N(C)[C@H]2CCCCCN(C2=O)[C@@H](Cc2ccc(C(F)(F)F)cc2)C(=O)N(C)CC(=O)N[C@@H](CCc2cc(F)c(C(F)(F)F)c(F)c2)C(=O)N2CCC[C@H]2C(=O)NC2(CCCC2)C(=O)N(C)[C@@H](C2CCCC2)C(=O)N(C)[C@H](C(=O)N2CCOCC2)CC(=O)N1C", "note": "[PP0522]", "values": [{"measurement": "HRAS/KRAS (ratio of KD value with respect to GDP-bound HRAS wild-type protein to KD value with respect to KRAS)", "setting": "[1]; SPR", "result": "B (a compound having 3 or more and less than 10 is denoted as B)"}, {"measurement": "NRAS/KRAS (ratio of KD value with respect to GDP-bound NRAS wild-type protein to KD value with respect to KRAS)", "setting": "[2]; SPR", "result": "B (a compound having 3 or more and less than 10 is denoted as B)"}]}, {"smiles": "CCCN1C(=O)CN(C)C(=O)[C@@H]2CCN2C(=O)[C@H]([C@@H](C)CC)NC(=O)[C@H](CC(C)C)N(C)C(=O)C[C@@H](C(=O)N2CCOCC2)N(C)C(=O)[C@H](C2CCCC2)N(C)C(=O)[C@](C)(Cc2ccccc2)NC(=O)[C@@H]2CCCN2C(=O)[C@H](CCc2cc(F)c(C(F)(F)F)c(F)c2)NC(=O)CN(C)C(=O)[C@@H]1Cc1ccc(C(F)(F)F)cc1", "note": "[PP0778] ([NMeL]I[Aze][Sar][NPrPhe(4-CF3)][Sar][hPhe(3,5-F2-4-CF3)]P[αMeF][NMeGly(cPent)][NMeD]-Morpholide; lactam N-11)", "values": [{"measurement": "HRAS/KRAS (ratio of KD value with respect to GDP-bound HRAS wild-type protein to KD value with respect to KRAS)", "setting": "[1]; SPR", "result": "B (a compound having 3 or more and less than 10 is denoted as B)"}, {"measurement": "NRAS/KRAS (ratio of KD value with respect to GDP-bound NRAS wild-type protein to KD value with respect to KRAS)", "setting": "[2]; SPR", "result": "B (a compound having 3 or more and less than 10 is denoted as B)"}]}, {"smiles": "CC[C@H](C)[C@@H]1NC(=O)[C@H](CC(C)C)N(C)C(=O)C[C@@H](C(=O)N2CCOCC2)N(C)C(=O)[C@H](C2CCCC2)N(C)C(=O)C2(CCC2)NC(=O)[C@@H]2C[C@@H](OCC(F)F)CN2C(=O)[C@H](CCc2cc(F)c(C(F)(F)F)c(F)c2)NC(=O)CN(C)C(=O)[C@H](Cc2ccc(C(F)(F)F)cc2)N2CCCC[C@@H](C2=O)N(C)C(=O)CN(C)C1=O", "note": "[PP1002]", "values": [{"measurement": "HRAS/KRAS (ratio of KD value with respect to HRAS to KD value with respect to KRAS)", "setting": "[1]; KD ratio, SPR", "result": "B (a compound having 3 or more and less than 10 is denoted as B)"}, {"measurement": "NRAS/KRAS (ratio of KD value with respect to NRAS to KD value with respect to KRAS)", "setting": "[2]; KD ratio, SPR", "result": "B (a compound having 3 or more and less than 10 is denoted as B)"}]}, {"smiles": "CCCOC[C@H]1C(=O)N[C@@H]([C@@H](C)CC)C(=O)N(C)CC(=O)N(C)[C@H]2C/C=C\\CCN(C2=O)[C@@H](Cc2ccc(C)cc2)C(=O)N(C)CC(=O)N[C@@H](CCc2ccc(C(F)(F)F)c(Cl)c2)C(=O)N2C[C@H](C)C[C@H]2C(=O)NC2(CC(C)(C)C2)C(=O)N(C)[C@@H](C2CCCC2)C(=O)N(C)[C@H](C(=O)N(C)C)CC(=O)N1C", "note": "[PP2234]", "values": [{"measurement": "HRAS/KRAS (ratio of KD value with respect to HRAS to KD value with respect to KRAS)", "setting": "[1]; SPR", "result": "A (a compound having 10 or more and less than 20 is denoted as A)"}, {"measurement": "NRAS/KRAS (ratio of KD value with respect to NRAS to KD value with respect to KRAS)", "setting": "[2]; SPR", "result": "A (a compound having 10 or more and less than 20 is denoted as A)"}]}, {"smiles": "CCC[C@H]1C(=O)N[C@@H]([C@@H](C)CC)C(=O)N2CCC[C@H]2C(=O)N(C)[C@H]2C/C=C\\CCN(C2=O)[C@@H](Cc2ccc(C(F)F)cc2)C(=O)N(C)CC(=O)N[C@@H](CCc2ccc(Cl)c(Cl)c2)C(=O)N2C[C@H](OCC)C[C@H]2C(=O)NC2(CC(C)(C)C2)C(=O)N(C)[C@@H](C(CC)CC)C(=O)N(C)[C@H](C(=O)N(C)C)CC(=O)N1C", "note": "[PP2637]", "values": [{"measurement": "HRAS/KRAS (ratio of KD value with respect to GDP-bound HRAS wild-type protein to KD value with respect to KRAS)", "setting": "[1]; class symbols", "result": "A (a compound having 10 or more and less than 20 is denoted as A)"}, {"measurement": "NRAS/KRAS (ratio of KD value with respect to GDP-bound NRAS wild-type protein to KD value with respect to KRAS)", "setting": "[2]; class symbols", "result": "AA (a compound having 20 or more is denoted as AA)"}]}, {"smiles": "CCOC[C@H]1C(=O)N[C@@H]([C@@H](C)CC)C(=O)N(C)CC(=O)N(C)[C@H]2C/C=C\\CCN(C2=O)[C@@H](Cc2ccc(C)cc2)C(=O)N(C)CC(=O)N[C@@H](CCc2ccc(C(F)(F)F)c(Cl)c2)C(=O)N2C[C@@H](C)C[C@H]2C(=O)NC2(CC(C)(C)C2)C(=O)N(C)[C@@H](C2CCCC2)C(=O)N(C)[C@H](C(=O)N(CC)CC)CC(=O)N1C", "note": "[PP2465]", "values": [{"measurement": "HRAS/KRAS (ratio of KD value with respect to HRAS to KD value with respect to KRAS)", "setting": "[1]; SPR", "result": "A (a compound having 10 or more and less than 20 is denoted as A)"}, {"measurement": "NRAS/KRAS (ratio of KD value with respect to NRAS to KD value with respect to KRAS)", "setting": "[2]; SPR", "result": "AA (a compound having 20 or more is denoted as AA)"}]}, {"smiles": "CCC[C@H]1C(=O)N[C@@H]([C@@H](C)CC)C(=O)N(C2CC2)CC(=O)N(C)[C@H]2C/C=C\\CCN(C2=O)[C@@H](Cc2ccc(C(F)(F)F)cc2)C(=O)N(C)CC(=O)N[C@@H](CCc2ccc(C(F)(F)F)c(OC)c2)C(=O)N2C[C@@H](C)C[C@H]2C(=O)N(C)C2(CCC2)C(=O)N(C)[C@@H](C2CCCC2)C(=O)N(C)[C@H](C(=O)N(C)C)CC(=O)N1C", "note": "[PP2360]", "values": [{"measurement": "HRAS/KRAS (ratio of KD value with respect to HRAS to KD value with respect to KRAS)", "setting": "[1]; SPR", "result": "B (a compound having 3 or more and less than 10 is denoted as B)"}, {"measurement": "NRAS/KRAS (ratio of KD value with respect to NRAS to KD value with respect to KRAS)", "setting": "[2]; SPR", "result": "A (a compound having 10 or more and less than 20 is denoted as A)"}]}]}
